The record followed here is US20060270727A1, “Small molecule therapeutics and uses therefor” (priority 2005, published 2006).

The subject of test [1] is duplex DNA having GAA repeats ((GAA)33). The experiment in a line: Quantitative DNase I footprinting on extended GAA repeat DNA. The test is classed as binding. An excerpt:
The term “mismatch” in the context of polyamides or linkable units refers to replacement of one or more linkable units in a polyamide such that recognition for a specific duplex DNA pair is energetically less favorable (Dervan & Edelson, Id.; Urbach & Dervan, Id). The term “match” in the context of polyamide binding to DNA refers to a linkable unit selected according to the polyamide recognition rules of Urbach & Dervan (Id). or Dervan & Edelson (Id).
where the second oligonucleotide was labeled with γ-^32P ATP and polynucleotide kinase, using standard procedures, to generate a PCR product labeled on the GAA strand. A 204 bp singly end-labeled PCR product was derived from plasmid pMP142 DNA, containing 33 GAA repeats (Ohshima et al., Id.), with following oligonucleotides: […]

Test [2] concerns mismatch DNA sequence 5′-GGAGGAGGTGGAGGAGGA-3′ from the erbB2 (Her2-neu) promoter. Nature of the test: DNase I footprinting on mismatch DNA. It is filed as binding, human. The note with it: polyamide concentrations up to 100 nM. On the procedure: Two additional molecules, FA5 [(ImPyβ)4ImβDp] and FA6 [(ImPyβ)5ImβDp], were synthesized in order to target longer regions of GAA repeats in duplex DNA; i.e., (AAG)5 (SEQ ID NO: ______) and (AAG)6 (SEQ ID NO: ______) respectively. […] As another test for sequence specificity, footprinting experiments with FA1 and FA3 and a radiolabeled DNA fragment containing a mismatch DNA sequence 5′-GGAGGAGGTGGAGGAGGA-3′ (SEQ ID NO: ______) were performed.
The first oligonucleotide shown was radiolabeled as above to generate a PCR product labeled on the GAA strand. A 150 bp PCR product containing a (GGA•TCC)6 mismatch sequence was derived from the erbB2 (Her2-neu) promoter in human genomic DNA with the following oligonucleotides: […]

For test [3], the system named is frataxin protein in GM15850 FRDA cells. The experiment in a line: Western blot of frataxin protein. The settings on record: 1-2 μM for 7 days, SDS-PAGE and western blot. The test is classed as cell-based, human. The procedure:
Since the primary transcripts from FRDA frataxin genes contain long stretches of GAA repeat RNA sequence, it is conceivable that this RNA will not be correctly processed into mature frataxin mRNA and frataxin protein will not be produced. To test whether polyamide FA 1 leads to increased levels of frataxin protein in treated lymphoid cells, total cell extracts from polyamide-treated (1-2 μM for 7 days) and untreated GM15851 control and GM15850 FRDA cells were subjected to SDS-PAGE, and the corresponding blots were probed with anti-frataxin or anti-actin antibodies. SDS-PAGE (i.e., sodium dodecylsulfate-polyacrylamide gel electrophoresis) was conducted by standard methods well known in the art.
Western Blot Analysis. Total cell extracts were used for SDS-PAGE and western blotting with antibodies to human frataxin (Chemicon) or actin (Santa Cruz Biotechnology) as a control for cell number and protein loading. Signals were detected by chemiluminescence after probing the blot with HRP-conjugated secondary antibody (Supersignal West, Pierce). To quantify the relative levels of proteins, autoradiograms (within the linear response range of X-ray film) were converted into digital images and the signals quantified using Molecular Dynamics ImageQuant software.
For orientation: A western blot detects proteins with antibodies after separation by electrophoresis.

Regarding `CN(C)CCCNC(=O)CCNC(=O)c1nc(NC(=O)CCNC(=O)c2cc(NC(=O)c3nc(NC(=O)CCNC(=O)c4cc(NC(=O)c5nccn5C)cn4C)cn3C)cn2C)cn1C` [FA1, ImPyβImPyβImβDp], the “concentration at 50% occupancy of the DNA” value in test [1] (equals target site concentration in the reaction) is reported as about 1.5 nM. Also, in test [1] (several molecules bound per DNA molecule), the “affinity for extended GAA repeats” value is reported as “no loss in affinity”. Besides, the “binding to mismatch DNA sequence” value in test [2] was “Neither FA1 nor FA3 bound this DNA sequence”. In addition, the “increase in frataxin protein” value in test [3] was 2-3 fold.
